# Source: ChEMBL document CHEMBL1127233, “Isolation and structure of axinastatin 5 from a republic of comoros marine sponge” (1994)
# Peptide text beside a SMILES is read from it.
# Columns and labels:
# Assay type in all cases: functional
# KM-20L2 = test: Growth inhibitory activity against KM20L2 human cancer cell line
# OVCAR-3 = test: Growth inhibitory activity against OVCAR-3 human cancer cell line
# SK-MEL-5 = test: Growth inhibitory activity against SK-MEL-5 human cancer cell line
# P388 = test: Inhibitory activity against murine P388 leukemia cell line; conditions: Mus musculus, read-out: ED50 (the source's name)
# SF-295 = test: Growth inhibitory activity against SF-295 human cancer cell line
# NCI-H460 = test: Growth inhibitory activity against NCI-H460 human cancer cell line
# A498 = test: Growth inhibitory activity against A498 human cancer cell line
Compound,GI50 (KM-20L2; read-out: GI50) [µg/mL],GI50 (OVCAR-3; read-out: GI50) [µg/mL],GI50 (SK-MEL-5; read-out: GI50) [µg/mL],EC50 (P388) [µg/mL],GI50 (SF-295; read-out: GI50) [µg/mL],GI50 (NCI-H460) [µg/mL],GI50 (A498; read-out: GI50) [µg/mL],GI50 (KM-20L2) [µg/mL],GI50 (OVCAR-3) [µg/mL],GI50 (SK-MEL-5) [µg/mL],GI50 (SF-295) [µg/mL],GI50 (A498) [µg/mL]
CC[C@H](C)[C@@H]1NC(=O)[C@H](CC(C)C)NC(=O)[C@@H]2CCCN2C(=O)[C@H](C(C)C)NC(=O)[C@H](Cc2ccc(O)cc2)NC(=O)[C@@H]2CCCN2C(=O)[C@@H]2CCCN2C(=O)[C@H](CC(C)C)NC1=O [AXINASTATIN 5] (cyclo(ILPPYVPL)),0.7,0.3,0.5,3.5,1.6,0.5,2.3,–,–,–,–,–
CC[C@H](C)[C@@H]1NC(=O)[C@H](CC(C)C)NC(=O)[C@@H]2CCCN2C(=O)[C@H](C(C)C)NC(=O)[C@H](Cc2ccc(O)cc2)NC(=O)[C@@H]2CCCN2C(=O)[C@@H]2CCCN2C(=O)[C@H]([C@@H](C)CC)NC1=O [Hymenistatin 1] (cyclo(IIPPYVPL)),–,–,–,–,–,0.3,–,0.1,0.04,0.6,0.3,0.7
